pIC50: −log10 of the molar value.
Columns and labels:
MV4-11 cells = experiment: MV4-11 cellular proliferative assay, Assay Format B (CTG 2.0, 168 h); type: cell-based; settings: Homo sapiens, 168 h (7 days), CTG 2.0, read-out: IC50 (MV4-11 cellular proliferative assay, Assay format B)
Protocol: MV4-11 cells at a confluency of ~50-80% was used for cell growth assay. 600 cells/well in a 384-well opaque cell culture plate (6007680; Perkin Elmer) were seeded in 40 μL of complete medium (IMDM+10% FBS+1X Penicillin-Streptomycin). Cells were incubated overnight at 37° C., 5% CO2. 10 mM DMSO stocks were prepared, cells were treated with 10 concentrations of test compounds starting from 1 uM or 100 nM, 3-fold dilution in 10 uL (5×concentration) of complete medium. Final DMSO concentration was 0.3%. Culture plates were centrifuged at 40×g, 30s. Cells were incubated with compounds for 168 h (7 days). After 7 days, 20 uL CTG 2.0 reagent (G9242; Promega) was added per well and luminescence reading was taken in Envision Xcite 2105 multimode plate reader. Data was analyzed in GraphPad Prism 10.0 and data was shown as % viability with respect to DMSO control and dose-response curves were generated using four parameter logistic regression. Assay quality was determined by z-factor calculation using positive and negative controls.

MLLT1 = target: T1, MLLT1 (Homo sapiens, UniProt Q03111); experiment: MLLT1 degradation assay in MV4-11 cells (JESS chemiluminescent detection), three concentrations, 24 h; type: cell-based; settings: with respect to DMSO control
T1 construct: host or cells: MV4-11
T1 sequence (Q03111 1-559): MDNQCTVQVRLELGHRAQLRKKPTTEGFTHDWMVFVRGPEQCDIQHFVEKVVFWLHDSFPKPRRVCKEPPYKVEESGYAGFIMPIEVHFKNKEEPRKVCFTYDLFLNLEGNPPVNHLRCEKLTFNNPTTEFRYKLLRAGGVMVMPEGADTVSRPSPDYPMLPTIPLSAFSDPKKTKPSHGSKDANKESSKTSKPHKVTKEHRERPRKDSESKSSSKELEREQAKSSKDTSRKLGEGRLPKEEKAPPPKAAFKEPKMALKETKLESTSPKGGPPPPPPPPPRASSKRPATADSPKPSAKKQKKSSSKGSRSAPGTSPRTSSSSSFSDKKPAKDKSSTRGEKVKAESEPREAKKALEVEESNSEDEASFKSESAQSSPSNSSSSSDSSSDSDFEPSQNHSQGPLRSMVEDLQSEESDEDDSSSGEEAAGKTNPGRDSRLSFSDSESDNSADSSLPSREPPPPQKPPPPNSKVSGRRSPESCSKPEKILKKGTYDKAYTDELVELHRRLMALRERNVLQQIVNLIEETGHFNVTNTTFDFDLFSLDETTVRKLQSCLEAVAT
Summary of the method: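 MV4-11 cells treated 24 h at 37° C, 5% CO2 with 1000, 100 and 10 nM compound (0.1% DMSO final). MLLT1 quantified by automated capillary chemiluminescent immunodetection; band peak area expressed as % degradation relative to DMSO control.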

pIC50 (MV4-11 cells) | MLLT1% Degradation @ 0.01 μM (MLLT1) | MLLT1% Degradation @ 0.1 μM (MLLT1) | MLLT1% Degradation @ 1 μM (MLLT1) | Structure (SMILES)
≥ 7.00 | A (Category A: A ≥ 75% degradation) | A (Category A: A ≥ 75% degradation) | A (Category A: A ≥ 75% degradation) | CN1CCC[C@@H]1c1[nH]c2cc(NC(=O)c3ccc(OCCC4CCN(c5cccc6c5CN(C5CCC(=O)NC5=O)C6=O)CC4)cc3)ncc2c1Cl (mixture of isomers) [Example 160, N-(3-chloro-2-((R)-1-methylpyrrolidin-2-yl)-1H-pyrrolo[3,2-c]pyridin-6-yl)-4-(2-(1-(2-(2,6-dioxopiperidin-3-yl)-1-oxoisoindolin-4-yl)piperidin-4-yl)ethoxy)benzamide]
≥ 7.00 | A (Category A: A ≥ 75% degradation) | A (Category A: A ≥ 75% degradation) | A (Category A: A ≥ 75% degradation) | CN1CCC[C@@H]1c1cc2cnc(NC(=O)c3ccc(CCCC#Cc4cccc5c4CN([C@H]4CCC(=O)NC4=O)C5=O)cc3)cc2[nH]1 (relative stereo) [Example 102, 4-(5-(2-((rel-S)-2,6-dioxopiperidin-3-yl)-1-oxoisoindolin-4-yl)pent-4-yn-1-yl)-N-(2-((R)-1-methylpyrrolidin-2-yl)-1H-pyrrolo[3,2-c]pyridin-6-yl)benzamide]
≥ 7.00 | A (Category A: A ≥ 75% degradation) | A (Category A: A ≥ 75% degradation) | A (Category A: A ≥ 75% degradation) | CN1CCC[C@@H]1c1cc2cnc(NC(=O)c3ccc(CCCC#Cc4cccc5c4CN([C@@H]4CCC(=O)NC4=O)C5=O)cc3)cc2[nH]1 (relative stereo) [Example 103, 4-(5-(2-((rel-R)-2,6-dioxopiperidin-3-yl)-1-oxoisoindolin-4-yl)pent-4-yn-1-yl)-N-(2-((R)-1-methylpyrrolidin-2-yl)-1H-pyrrolo[3,2-c]pyridin-6-yl)benzamide]
≥ 7.00 | A (Category A: A ≥ 75% degradation) | A (Category A: A ≥ 75% degradation) | A (Category A: A ≥ 75% degradation) | CN1CCC[C@@H]1c1cc2cnc(NC(=O)c3ccc(CCCC4CCN(c5cccc6c5CN([C@@H]5CCC(=O)NC5=O)C6=O)CC4)cc3F)cc2[nH]1 (relative stereo) [Example 176, 4-(3-(1-(2-((rel-R)-2,6-dioxopiperidin-3-yl)-1-oxoisoindolin-4-yl)piperidin-4-yl)propyl)-2-fluoro-N-(2-((R)-1-methylpyrrolidin-2-yl)-1H-pyrrolo[3,2-c]pyridin-6-yl)benzamide]

Second part, the compound before the results:

Structure (SMILES) | pIC50 (MV4-11 cells) | MLLT1% Degradation @ 0.01 μM (MLLT1) | MLLT1% Degradation @ 0.1 μM (MLLT1) | MLLT1% Degradation @ 1 μM (MLLT1)
C[C@@H]1CN(CC2CCN(c3cccc4c3CN(C3CCC(=O)NC3=O)C4=O)CC2)CCN1c1ccc(C(=O)Nc2cc3[nH]c([C@H]4CCCN4C)cc3cn2)cc1 (mixture of isomers) [Example 133, 4-((2R)-4-((1-(2-(2,6-dioxopiperidin-3-yl)-1-oxoisoindolin-4-yl)piperidin-4-yl)methyl)-2-methylpiperazin-1-yl)-N-(2-((R)-1-methylpyrrolidin-2-yl)-1H-pyrrolo[3,2-c]pyridin-6-yl)benzamide] | ≥ 7.00 | A (Category A: A ≥ 75% degradation) | A (Category A: A ≥ 75% degradation) | A (Category A: A ≥ 75% degradation)
CN1CCC[C@@H]1c1cc2cnc(NC(=O)c3ccc(OCCC4CCN(c5cccc6c5CN(C5CCC(=O)NC5=O)C6=O)CC4)cc3F)cc2[nH]1 (mixture of isomers) [Example 171, 4-(2-(1-(2-(2,6-dioxopiperidin-3-yl)-1-oxoisoindolin-4-yl)piperidin-4-yl)ethoxy)-2-fluoro-N-(2-((R)-1-methylpyrrolidin-2-yl)-1H-pyrrolo[3,2-c]pyridin-6-yl)benzamide] | ≥ 7.00 | A (Category A: A ≥ 75% degradation) | A (Category A: A ≥ 75% degradation) | A (Category A: A ≥ 75% degradation)
CN1CCC[C@@H]1c1cc2cnc(NC(=O)c3ccc(CCCC4CCN(c5cccc6c5CN(C5CCC(=O)NC5=O)C6=O)CC4)cc3F)cc2[nH]1 (mixture of isomers) [Example 174, 4-(3-(1-(2-(2,6-dioxopiperidin-3-yl)-1-oxoisoindolin-4-yl)piperidin-4-yl)propyl)-2-fluoro-N-(2-((R)-1-methylpyrrolidin-2-yl)-1H-pyrrolo[3,2-c]pyridin-6-yl)benzamide] | ≥ 7.00 | A (Category A: A ≥ 75% degradation) | A (Category A: A ≥ 75% degradation) | A (Category A: A ≥ 75% degradation)
CN1CCC[C@@H]1c1cc2cnc(NC(=O)c3ccc(N4CCN(CC5CCN(c6cccc7c6CN([C@H]6CCC(=O)NC6=O)C7=O)CC5)CC4)cc3)cc2[nH]1 (relative stereo) [Example 117, 4-(4-((1-(2-((rel-S)-2,6-dioxopiperidin-3-yl)-1-oxoisoindolin-4-yl)piperidin-4-yl)methyl)piperazin-1-yl)-N-(2-((R)-1-methylpyrrolidin-2-yl)-1H-pyrrolo[3,2-c]pyridin-6-yl)benzamide] | ≥ 7.00 | B (Category B: 50% ≤ B < 75% degradation) | A (Category A: A ≥ 75% degradation) | B (Category B: 50% ≤ B < 75% degradation)
CN1CCC[C@@H]1c1cc2cnc(NC(=O)c3ccc(N4CCN(CC5CCN(c6cccc7c6CN([C@@H]6CCC(=O)NC6=O)C7=O)CC5)CC4)cc3)cc2[nH]1 (relative stereo) [Example 118, 4-(4-((1-(2-((rel-R)-2,6-dioxopiperidin-3-yl)-1-oxoisoindolin-4-yl)piperidin-4-yl)methyl)piperazin-1-yl)-N-(2-((R)-1-methylpyrrolidin-2-yl)-1H-pyrrolo[3,2-c]pyridin-6-yl)benzamide] | ≥ 7.00 | C (Category C: 25% ≤ C < 50% degradation) | B (Category B: 50% ≤ B < 75% degradation) | B (Category B: 50% ≤ B < 75% degradation)
C[C@@H]1CN(CC2CCN(c3cccc4c3CN(C3CCC(=O)NC3=O)C4=O)CC2)CCN1c1ccc(C(=O)Nc2cc3[nH]c([C@H]4CCCN4C)cc3cn2)cc1 (relative stereo) [Example 135, 4-((R)-4-((1-(2-((rel-S)-2,6-dioxopiperidin-3-yl)-1-oxoisoindolin-4-yl)piperidin-4-yl)methyl)-2-methylpiperazin-1-yl)-N-(2-((R)-1-methylpyrrolidin-2-yl)-1H-pyrrolo[3,2-c]pyridin-6-yl)benzamide] | ≥ 7.00 | A (Category A: A ≥ 75% degradation) | A (Category A: A ≥ 75% degradation) | A (Category A: A ≥ 75% degradation)
CN1CCC[C@@H]1c1cc2cnc(NC(=O)c3ccc(CCCC4CCN(c5cccc6c5CN([C@H]5CCC(=O)NC5=O)C6=O)CC4)cc3F)cc2[nH]1 (relative stereo) [Example 175, 4-(3-(1-(2-((rel-S)-2,6-dioxopiperidin-3-yl)-1-oxoisoindolin-4-yl)piperidin-4-yl)propyl)-2-fluoro-N-(2-((R)-1-methylpyrrolidin-2-yl)-1H-pyrrolo[3,2-c]pyridin-6-yl)benzamide] | ≥ 7.00 | A (Category A: A ≥ 75% degradation) | A (Category A: A ≥ 75% degradation) | A (Category A: A ≥ 75% degradation)
